# Data reported in patent US9889120B2, “Combination drug therapies for cancer and methods of making and using them” (Vicus Therapeutics, LLC, priority 2016, dated 2018).
# Key:
# advanced HCC [1] = experiment: Phase II multi-center, randomized, double-blind, placebo-controlled study of VT-122 or placebo on a background of stable-dose sorafenib (Example 1); format: in vivo, human; settings: advanced HCC patients
# Protocol: This was a multi-center, randomized, double-blind, double-dummy, placebo-controlled study.
# VT-122 (Vicus Therapeutics, Morristown N.J.): patients entered a three week dose escalation period, with propranolol maximum at 120 mg, and etodolac maximum at 600 mg. VT-122 was administered in split doses in the morning and evening.
# After the three week dose escalation period, patients were to continue therapy for four four-week cycles.
# Secondary endpoint=lean body mass, overall survival, muscle function, symptom assessment.
# advanced HCC [2] = experiment: Randomized investigator initiated trial: sorafenib alone (Group S) vs sorafenib after one week of propranolol and etodolac (Group SPE) (Example 2); format: in vivo, human
# Protocol: Data on the use of the combination in advanced hepatocellular carcinoma patients are lacking.
# Patients with advanced HCC were eligible for this randomized investigator initiated trial. Patients received propranolol (P) and etodolac (E) (or “PE”) daily for one week prior to starting sorafenib (S). PE was administered to maximize the therapeutic benefit and minimize side effects. The primary endpoint was survival.
# Twenty-four patients were randomized to either sorafenib alone (Group S) or sorafenib after one week of propranolol and etodolac (Group SPE). Population: median age, 54.6 years; 74% male; BMI, 23.0; C-reactive protein (CRP), 69.3; cirrhosis (8.8%), fibrosis (50%), hepatitis B positive (85%). The patient population is summarized:
# The study design is schematically illustrated in FIG. 6. Patients received PE daily for one week prior to starting S.
# Dosing for PE was as follows: • 8 AM 20 mg propranolol+300 mg etodolac • 3 PM 20 mg propranolol • 8 PM 300 mg etodolac
structure (smiles),measurement,setting,value
"CNC(=O)c1cc(Oc2ccc(NC(=O)Nc3ccc(Cl)c(C(F)(F)F)c3)cc2)ccn1 [Sorafenib, 4-[4-[[4-chloro-3-(trifluoromethyl)phenyl]carbamoylamino]phenoxy]-N-methyl-pyridine-2-carboxamide]","Kaplan-Meier median survival (95% CI), days",advanced HCC [1],"267 (32, NR) days"
same,percent of patients with loss in weight,advanced HCC [2]; FIG. 8,50%
same,"12 Month Survival, Percent","advanced HCC [2]; N=12 per group, table",25.0%
same,"Hand foot skin reaction (HFS) grade 2 or 3, percent of patients",advanced HCC [2]; advanced HCC patients,67%
same,Median survival,advanced HCC [2]; advanced HCC patients,10 months
same,Twelve month survival,"advanced HCC [2]; advanced HCC patients, 12 per group",25.0%
same,"12 Month Survival, Alive",advanced HCC [2]; number of patients alive of N=12,3
